According to patent US20240124451A1, “PHTHALAZINE DERIVATIVES USEFUL AS INHIBITORS OF NOD-LIKE RECEPTOR PROTEIN 3” (Merck Sharp & Dohme LLC, priority 2022, published 2024):

What follows are compounds tested against T1, NLRP3 inflammasome (Homo sapiens, UniProt Q96P20) (assay: ASC-SPECK formation in THP-1 cells after gramicidin stimulation (NLRP3 inflammasome activation)). Conditions: PMA-treated human monocytic THP-1 cells, compound 1 h before 12.5 ug/ml gramicidin, 3 h, ASC SPECK imaging; read-out: EC50 (nM) for Examples that inhibit NLRP3 inflammasome activation.
T1 construct: host or cells: THP-1 human monocytic cells, PMA-treated, stimulated with gramicidin
Format: cell-based
Description: The ability of compounds to inhibit NLRP3 inflammasome activation was determined in vitro by monitoring formation of the ASC-SPECK in human monocytic THP-1 cells after stimulation. THP-1 cells (ATCC catalog #TIB-202) were maintained in complete growth media containing Roswell Park Memorial Institute RPMI (ATCC catalog #30-2001), 10% heat inactivated fetal bovine serum, 1× penicillin/streptomycin and 0.05 mM 2-mercaptoethanol. At the start of the assay, undifferentiated THP-1 cells were plated at a density of 20,000 cells per well in a 384-well plate (Poly-D-lysine coated Cell Carrier Ultra microplate, Perkin Elmer catalog #6057500) in complete growth media supplemented with 10 ng/ml phorbol 12-myristate 13-acetate (PMA; Sigma catalog #P8139), and then incubated overnight. The next day, media was replaced with assay media [RPMI (Gibco catalog #11875-093), 0.01% bovine serum albumin (BSA)]. Compounds were serially diluted in DMSO and then added to wells one hour prior to the addition of 12.5 ug/ml Gramicidin (Enzo Lifescience, catalog #ALX-350-233-M005). All incubations were carried out at 37° C. (5% CO2/95% air). Following a 3-hour treatment with gramicidin, cells are fixed with 4% paraformaldehyde and stored at 4° C. until immunofluorescence staining.
Immunofluorescence staining: Anti-ASC antibody (MBL catalog #D086-3) was desalted and labeled with Alexa 488 antibody labeling kit (Thermo catalog #A20181) prior to use as described below. After fixation, the following steps were carried out at room temperature. Cells were first permeabilized with 0.3% Triton X-100 in phosphate-buffered saline (PBS) for 15 minutes and then incubated in blocking buffer containing 5% goat serum, 0.3% tween-20 and 0.03% sodium azide in PBS for 1 hour. Cells were stained with a mixture of ASC-Alexa 488 antibody (diluted 1:200 in blocking buffer) and nuclear stain DRAQ5 (1:5000 in blocking buffer, Thermo catalog #62251) in blocking buffer for 1 hour. Following a wash with 0.3% Tween-20 in PBS, plates were imaged with an Opera Phenix High Content Screening System. The number of DRAQ5 positive cells containing ASC SPECKS were quantified in each well.
Data analysis: EC50 values were calculated by standard curve-fitting analysis using an internally developed program in TIBCO Spotfire software.

T1 sequence (Q96P20 whole entry): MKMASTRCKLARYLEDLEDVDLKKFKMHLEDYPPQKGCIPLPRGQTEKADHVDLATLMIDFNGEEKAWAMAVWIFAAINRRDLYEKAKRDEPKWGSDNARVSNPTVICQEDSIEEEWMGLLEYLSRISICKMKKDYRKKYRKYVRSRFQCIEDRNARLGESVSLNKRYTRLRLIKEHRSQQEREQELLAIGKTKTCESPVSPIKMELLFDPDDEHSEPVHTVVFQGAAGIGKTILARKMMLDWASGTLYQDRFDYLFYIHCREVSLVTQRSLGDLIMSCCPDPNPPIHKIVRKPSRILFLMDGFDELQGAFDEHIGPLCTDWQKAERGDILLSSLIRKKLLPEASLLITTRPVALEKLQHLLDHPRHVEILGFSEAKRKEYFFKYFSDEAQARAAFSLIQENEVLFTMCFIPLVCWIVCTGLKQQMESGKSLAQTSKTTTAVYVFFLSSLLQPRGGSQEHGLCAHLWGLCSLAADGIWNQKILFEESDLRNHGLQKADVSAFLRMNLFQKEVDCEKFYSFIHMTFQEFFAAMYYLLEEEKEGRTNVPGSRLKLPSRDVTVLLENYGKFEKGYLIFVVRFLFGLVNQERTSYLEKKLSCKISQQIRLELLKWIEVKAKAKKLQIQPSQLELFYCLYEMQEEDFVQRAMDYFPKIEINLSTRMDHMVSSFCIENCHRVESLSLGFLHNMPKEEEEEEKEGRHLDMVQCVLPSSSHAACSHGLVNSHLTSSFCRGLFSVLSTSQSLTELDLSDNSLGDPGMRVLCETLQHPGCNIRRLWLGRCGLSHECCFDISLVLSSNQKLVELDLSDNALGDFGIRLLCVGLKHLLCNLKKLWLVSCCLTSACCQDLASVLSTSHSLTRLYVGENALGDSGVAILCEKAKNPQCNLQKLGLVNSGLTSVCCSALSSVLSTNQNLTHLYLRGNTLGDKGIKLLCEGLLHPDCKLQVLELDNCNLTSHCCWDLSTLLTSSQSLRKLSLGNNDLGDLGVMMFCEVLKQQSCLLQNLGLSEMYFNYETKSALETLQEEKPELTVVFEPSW

Row | EC50 [nM] | SMILES
1 | 742 | CN1CC2(CCN(c3nnc(-c4ccc(C(F)(F)F)cc4O)c4cccnc34)CC2)OC1=O [Example 36, 8-(5-(2-hydroxy-4-(trifluoro-methyl)phenyl)pyrido[2,3-d]-pyridazin-8-yl)-3-methyl-1-oxa-3,8-diazaspiro[4.5]decan-2-one]
2 | 1570 | C[C@]1(O)CCN(c2nnc(-c3ccc(C(F)(F)F)cc3O)c3cc(C(F)F)cnc23)C1 [Example 57]
3 | 23 | C[C@@H]1CN(c2nnc(-c3ccc(C(F)(F)F)cc3O)c3ccncc23)C[C@H](C)[C@H]1O (single isomer, unassigned) [Example 18]
4 | 515 | C[C@@H]1CN(c2nnc(-c3ccc(C(F)(F)F)cc3O)c3ccnnc23)C[C@H](C)O1 [Example 8, 2-(8-((cis)-2,6-dimethylmorpholino)pyridazino[4,5-c]pyridazin-5-yl)-5-(trifluoromethyl)phenol]
5 | 52 | C[C@@H]1CN(c2nnc(-c3ccc(C(F)(F)F)cc3O)c3cccnc23)C[C@H](C)[C@]1(C)O [Example 24, (3S,4s,5R)-1-(5-(2-hydroxy-4-(trifluoromethyl)phenyl)pyrido [2,3-d]pyridazin-8-yl)-3,4,5-trimethylpiperidin-4-ol]
6 | 1130 | CC1(C)CCOC12CCN(c1nnc(-c3ccc(C(F)(F)F)cc3O)c3cccnc13)CC2 [Example 37, 2-(8-(4,4-dimethyl-1-oxa-8-azaspiro[4.5]decan-8-yl)pyrido[2,3-d]pyridazin-5-yl)-5-(trifluoromethyl)phenol]
7 | 563 | CN1C(=O)CCC12CCN(c1nnc(-c3ccc(C(F)(F)F)cc3O)c3cccnc13)CC2 [Example 39, 8-(5-(2-hydroxy-4-(trifluoromethyl)phenyl)pyrido [2,3-d]pyridazin-8-yl)-1-methyl-1,8-diazaspiro[4.5]decan-2-one]
8 | 556 | C[C@@H]1CN(c2nnc(-c3ccc(C(F)(F)F)cc3O)c3cnccc23)C[C@H](C)O1 [Example 5, 2-(1-((cis)-2,6-dimethylmorpholino)pyrido[3,4-d]pyridazin-4-yl)-5-(trifluoromethyl)phenol]
9 | 734 | Cc1cccc2c(-c3ccc(C(F)(F)F)cc3O)nnc(N3C[C@@H](C)O[C@@H](C)C3)c12 [Example 14, 2-(4-((cis)-2,6-dimethylmorpholino)-5-methylphthalazin-1-yl)-5-(trifluoromethyl)phenol]
10 | 831 | CN(C)CC1(O)CCN(c2nnc(-c3ccc(C(F)(F)F)cc3O)c3cccnc23)C1 (racemic) [Example 46, (R and S)-3-((dimethylamino)methyl)-1-(5-(2-hydroxy-4-(trifluoromethyl)phenyl)pyrido [2,3-d]pyridazin-8-yl)pyrrolidin-3-ol]
11 | 411 | CC1(CO)CCN(c2nnc(-c3ccc(C(F)(F)F)cc3O)c3cccnc23)C1 (racemic) [Example 48, (R and S)-2-(8-(3-(hydroxymethyl)-3-methylpyrrolidin-1-yl)pyrido[2,3-d]pyridazin-5-yl)-5-(trifluoromethyl)phenol]
12 | 591 | Oc1cc(C(F)(F)F)ccc1-c1nnc(N2CC(O)C3(CC3)C2)c2ncccc12 (racemic) [Example 44, (R and S)-5-(5-(2-hydroxy-4-(trifluoromethyl)phenyl)pyrido [2,3-d]pyridazin-8-yl)-5-azaspiro[2.4]heptan-7-ol]
13 | 68 | C[C@@H]1CN(c2nnc(-c3ccc(C(F)(F)F)cc3O)c3cnccc23)C[C@H](C)[C@H]1O [Example 19, (3S,4r,5R)-1-(4-(2-hydroxy-4-(trifluoromethyl)phenyl)pyrido[3,4-d]pyridazin-1-yl)-3,5-dimethylpiperidin-4-ol]
14 | 1100 | C[C@@H]1C[C@](O)(c2nnc(-c3ccc(C(F)(F)F)cc3O)c3cccnc23)C[C@H](C)O1 [Example 54, (2R,4s,6S)-4-(5-(2-hydroxy-4-(trifluoromethyl)phenyl)pyrido[2,3-d]-pyridazin-8-yl)-2,6-dimethyltetrahydro-2H-pyran-4-ol]
15 | 570 | C[C@@H]1CN(c2nnc(-c3ccc(C(F)(F)F)cc3OC(F)F)c3ccncc23)C[C@H](C)O1 [Example 7, (cis)-4-(1-(2-(difluoromethoxy)-4-(trifluoromethyl)phenyl)pyrido[3,4-d]pyridazin-4-yl)-2,6-dimethylmorpholine]
16 | 621 | C[C@]1(O)CCN(c2nnc(-c3ccc(C(F)(F)F)cc3O)c3ccc(C(F)(F)F)nc23)C1 [Example 12, (S)-1-(5-(2-hydroxy-4-(trifluoromethyl)phenyl)-2-(trifluoromethyl)pyrido[2,3-d]pyridazin-8-yl)-3-methylpyrrolidin-3-ol]
17 | 1180 | Oc1cc(C(F)(F)F)ccc1-c1nnc(N2CCC(O)(C3CC3)C2)c2ncccc12 (racemic) [Example 45, (R and S)-3-cyclopropyl-1-(5-(2-hydroxy-4-(trifluoromethyl)phenyl)pyrido [2,3-d]pyridazin-8-yl)pyrrolidin-3-ol]
18 | 952 | O=C1CCC2(CCN(c3nnc(-c4ccc(C(F)(F)F)cc4O)c4cccnc34)CC2)O1 [Example 42, 8-(5-(2-hydroxy-4-(trifluoromethyl)phenyl)pyrido [2,3-d]pyridazin-8-yl)-1-oxa-8-azaspiro[4.5]decan-2-one]
19 | 264 | C[C@@H]1CN(c2nnc(-c3ccc(C(F)(F)F)cc3O)c3cnncc23)C[C@H](C)[C@]1(C)O [Example 13, (3S,4s,5R)-1-(4-(2-hydroxy-4-(trifluoromethyl)phenyl)pyridazino [4,5-d]pyridazin-1-yl)-3,4,5-trimethylpiperidin-4-ol]
20 | 1850 | C[C@@H]1CN(c2nnc(-c3ccc(C(F)(F)F)cc3O)c3ncccc23)C[C@H](C)O1 [Example 6, 2-(5-((cis)-2,6-dimethylmorpholino)pyrido[2,3-d]pyridazin-8-yl)-5-(trifluoromethyl)phenol]
21 | 80 | C[C@@H]1CN(c2nnc(-c3ccc(C(F)(F)F)cc3O)c3cnncc23)C[C@H](C)O1 [Example 9, 2-(4-((cis)-2,6-dimethylmorpholino)pyridazino[4,5-d]pyridazin-1-yl)-5-(trifluoromethyl)phenol]
22 | 5 | CN1CC[C@H]2CCN(c3nnc(-c4ccc(C(F)(F)F)cc4O)c4cccnc34)[C@H]2C1 [Example 23, 2-(8-((3aS,7aR)-6-methyloctahydro-1H-pyrrolo[2,3-c]pyridin-1-yl)pyrido[2,3-d]pyridazin-5-yl)-5-(trifluoromethyl)phenol]
23 | 70 | C[C@@H]1CN(c2nnc(-c3ccc(C(F)(F)F)cc3O)c3ccncc23)C[C@H](C)[C@]1(C)O (single isomer, unassigned) [Example 16]
24 | 96 | C[C@@H]1CN(c2nnc(-c3ccc(C(F)(F)F)cc3O)c3cccnc23)C[C@H](C)S1(=O)=O [Example 26, (cis)-4-(5-(2-hydroxy-4-(trifluoromethyl)phenyl)pyrido [2,3-d]pyridazin-8-yl)-2,6-dimethylthiomorpholine 1,1-dioxide]
25 | 330 | O=C1COC2(CCN(c3nnc(-c4ccc(C(F)(F)F)cc4O)c4cccnc34)CC2)CN1 [Example 32, 9-(5-(2-hydroxy-4-(trifluoromethyl)phenyl)pyrido [2,3-d]pyridazin-8-yl)-1-oxa-4,9-diazaspiro[5.5]undecan-3-one]
26 | 221 | C[C@@H]1CN(c2nnc(-c3ccc(C(F)(F)F)cc3O)c3cccnc23)C[C@H](C)C1(F)F [Example 33, 2-(8-((cis)-4,4-difluoro-3,5-dimethylpiperidin-1-yl)pyrido[2,3-d]pyridazin-5-yl)-5-(trifluoromethyl)phenol]
27 | 90 | C[C@]1(O)CCN(c2nnc(-c3ccc(C(F)(F)F)cc3O)c3ccc(C(F)F)nc23)C1 [Example 56]
28 | 1510 | CC(=O)N1CCCC12CCN(c1nnc(-c3ccc(C(F)(F)F)cc3O)c3cccnc13)CC2 [Example 34, 1-(8-(5-(2-hydroxy-4-(trifluoromethyl)phenyl)pyrido [2,3-d]pyridazin-8-yl)-1,8-diazaspiro[4.5]decan-1-yl)ethan-1-one]
